Where two headings read alike, the source gives them in different places. *1 amine or outer side, *2 acyl side, *3 side chain or, on linkers, in order; H or OH if unused. Where a SMILES comes first, the peptide text is derived from it. Side-chain parts run from the residue outwards. [ ]: non-standard residue; d: D form. The star is where a group is joined. γGlu = O=C(O)[C@H](CCC(=O)[*:2])N[*:1]; Palmitoyl = CCCCCCCCCCCCCCCC(=O)*; Aib = CC(C)(N)C(=O)O
What was measured:
[1] = in vivo; details: male, rat
[2] = biological target: human GLP-1R (Homo sapiens, UniProt P43220); assay: Peptide-receptor mediated cAMP accumulation (LANCE Ultra cAMP) in CHO-K1 cells transfected with human GLP-1R; assay type: cell-based
[3] = biological target: human GCGR (Homo sapiens, UniProt P47871); assay: Peptide-receptor mediated cAMP accumulation (LANCE Ultra cAMP) in CHO-K1 cells transfected with human GCGR; assay type: cell-based; details: read-out: GluR pEC50 (converted)
[4] = hGLP1 pEC50 (cAMP mean (n = 3): 11 point curve starting at 1 nM, Table 3)
[5] = Table 7, GLP-1R, read-out: GLP-1R pEC50 (converted)

Sequence of human GCGR (P47871 26-477): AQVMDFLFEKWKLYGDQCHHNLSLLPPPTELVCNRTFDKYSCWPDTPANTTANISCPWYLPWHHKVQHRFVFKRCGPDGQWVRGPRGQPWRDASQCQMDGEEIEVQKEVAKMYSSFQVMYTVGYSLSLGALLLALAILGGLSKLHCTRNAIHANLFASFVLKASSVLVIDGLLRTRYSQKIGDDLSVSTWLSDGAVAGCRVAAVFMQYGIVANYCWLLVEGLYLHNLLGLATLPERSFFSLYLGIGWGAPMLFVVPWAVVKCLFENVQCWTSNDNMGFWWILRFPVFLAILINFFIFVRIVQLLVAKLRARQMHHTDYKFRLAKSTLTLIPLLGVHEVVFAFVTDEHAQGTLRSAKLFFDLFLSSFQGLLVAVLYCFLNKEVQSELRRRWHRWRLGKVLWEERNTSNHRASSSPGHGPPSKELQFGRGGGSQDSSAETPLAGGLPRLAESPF
Sequence of human GLP-1R (P43220 24-463): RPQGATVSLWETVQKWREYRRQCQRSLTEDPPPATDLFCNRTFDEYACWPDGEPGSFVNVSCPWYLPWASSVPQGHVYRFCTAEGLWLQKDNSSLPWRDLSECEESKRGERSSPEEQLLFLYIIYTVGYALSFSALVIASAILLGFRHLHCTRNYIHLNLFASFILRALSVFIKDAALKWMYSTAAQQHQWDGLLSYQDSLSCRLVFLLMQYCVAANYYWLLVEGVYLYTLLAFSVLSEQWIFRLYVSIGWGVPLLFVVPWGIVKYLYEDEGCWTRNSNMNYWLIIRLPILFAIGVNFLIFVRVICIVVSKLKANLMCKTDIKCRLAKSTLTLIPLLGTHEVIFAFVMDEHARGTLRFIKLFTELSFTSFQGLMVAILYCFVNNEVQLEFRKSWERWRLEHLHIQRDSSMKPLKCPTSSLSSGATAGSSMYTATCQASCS

Compound | clearance [1] | EC50 [2, 4] | EC50 [3] | EC50 [2, 5]
CC(C)C[C@H](NC(=O)[C@H](Cc1ccc(O)cc1)NC(=O)[C@H](CCCCN)NC(=O)[C@H](CO)NC(=O)[C@H](Cc1ccc(O)cc1)NC(=O)[C@H](CC(=O)O)NC(=O)[C@H](CO)NC(=O)[C@@H](NC(=O)[C@H](Cc1ccccc1)NC(=O)[C@@H](NC(=O)CNC(=O)[C@H](Cc1c[nH]cn1)NC(=O)[C@H](CO)NC(=O)[C@@H](N)Cc1ccc(O)cc1)[C@@H](C)O)[C@@H](C)O)C(=O)N[C@@H](CC(=O)O)C(=O)NC(C)(C)C(=O)N[C@@H](CCCCN)C(=O)N[C@@H](CCCNC(=N)N)C(=O)N[C@@H](C)C(=O)N[C@@H](CCC(N)=O)C(=O)N[C@@H](CCC(=O)O)C(=O)N[C@@H](Cc1ccccc1)C(=O)N[C@H](C(=O)NC(C)(C)C(=O)N[C@@H](Cc1c[nH]c2ccccc12)C(=O)N[C@@H](CC(C)C)C(=O)N[C@@H](CCC(=O)O)C(=O)N[C@@H](CC(=O)O)C(=O)N[C@@H](CCC(=O)O)C(=O)N1CCC[C@H]1C(=O)N[C@@H](CO)C(=O)N[C@@H](CO)C(=O)NCC(=O)N[C@@H](C)C(=O)N1CCC[C@H]1C(=O)N1CCC[C@H]1C(=O)N1CCC[C@H]1C(=O)N[C@@H](CO)C(N)=O)C(C)C [Compound A8] (H-YSHGTFTSDYSKYLD[Aib]KRAQEFV[Aib]WLEDEPSSGAPPPS-NH2; N-terminus assumed) | 17 mL/min/kg | > 1 nM |  | 
CC(C)C[C@H](NC(=O)[C@H](Cc1ccc(O)cc1)NC(=O)[C@H](CCCCN)NC(=O)[C@H](CO)NC(=O)[C@H](Cc1ccc(O)cc1)NC(=O)[C@H](CC(=O)O)NC(=O)[C@H](CO)NC(=O)[C@@H](NC(=O)[C@H](Cc1ccccc1)NC(=O)[C@@H](NC(=O)CNC(=O)[C@H](Cc1c[nH]cn1)NC(=O)[C@H](CO)NC(=O)[C@@H](N)Cc1ccc(O)cc1)[C@@H](C)O)[C@@H](C)O)C(=O)N[C@@H](CC(=O)O)C(=O)NC(C)(C)C(=O)N[C@@H](CCCCN)C(=O)N[C@@H](CCCNC(=N)N)C(=O)N[C@@H](C)C(=O)N[C@@H](CCC(N)=O)C(=O)N[C@@H](CCC(=O)O)C(=O)N[C@@H](Cc1ccccc1)C(=O)N[C@H](C(=O)NC(C)(C)C(=O)N[C@@H](Cc1c[nH]c2ccccc12)C(=O)N[C@@H](CC(C)C)C(=O)N[C@@H](CCC(=O)O)C(=O)N[C@@H](CC(=O)O)C(=O)N[C@@H](CCC(=O)O)C(=O)N1CCC[C@H]1C(=O)N[C@@H](CO)C(=O)N[C@@H](CO)C(=O)NCC(=O)N[C@@H](CCCCN)C(=O)N1CCC[C@H]1C(=O)N1CCC[C@H]1C(=O)N1CCC[C@H]1C(=O)N[C@@H](CO)C(=O)O)C(C)C [Compound A20] (H-YSHGTFTSDYSKYLD[Aib]KRAQEFV[Aib]WLEDEPSSGKPPPS-OH; N-terminus assumed) | 15 mL/min/kg | > 1 nM |  | 
CCCCCCCCCCCCCCCC(=O)N[C@@H](CCC(=O)NCCCC[C@H](NC(=O)[C@H](CC(=O)O)NC(=O)[C@H](CC(C)C)NC(=O)[C@H](Cc1ccc(O)cc1)NC(=O)[C@H](CCCCN)NC(=O)[C@H](CO)NC(=O)[C@H](Cc1ccc(O)cc1)NC(=O)[C@H](CC(=O)O)NC(=O)[C@H](CO)NC(=O)[C@@H](NC(=O)[C@H](Cc1ccccc1)NC(=O)[C@@H](NC(=O)CNC(=O)[C@H](CCC(N)=O)NC(=O)[C@H](CO)NC(=O)[C@@H](N)Cc1ccc(O)cc1)[C@@H](C)O)[C@@H](C)O)C(=O)N[C@@H](C)C(=O)N[C@@H](CCCNC(=N)N)C(=O)N[C@@H](C)C(=O)N[C@@H](CCC(N)=O)C(=O)N[C@@H](CCC(=O)O)C(=O)N[C@@H](Cc1ccccc1)C(=O)N[C@H](C(=O)N[C@@H](CCCCN)C(=O)N[C@@H](Cc1c[nH]c2ccccc12)C(=O)N[C@@H](CC(C)C)C(=O)N[C@@H](CCC(=O)O)C(=O)N[C@@H](CC(=O)O)C(=O)N[C@@H](CCC(=O)O)C(=O)N1CCC[C@H]1C(=O)N[C@@H](CCCCN)C(=O)N[C@@H](CO)C(=O)N[C@@H](CCCCN)C(=O)N[C@@H](CO)C(=O)N1CCC[C@H]1C(=O)N1CCC[C@H]1C(=O)N1CCC[C@H]1C(=O)N[C@@H](CO)C(N)=O)C(C)C)C(=O)O [Compound B35] (H-YSQGTFTSDYSKYLDK([γGlu-Palmitoyl])ARAQEFVKWLEDEPKSKSPPPS-NH2) |  |  | 0.00794 nM | 251 nM
CCCCCCCCCCCCCCCC(=O)N[C@@H](CCC(=O)NCCCC[C@H](NC(=O)[C@H](CC(=O)O)NC(=O)[C@H](CO)NC(=O)[C@@H](NC(=O)[C@H](Cc1ccccc1)NC(=O)[C@@H](NC(=O)CNC(=O)[C@H](CCC(N)=O)NC(=O)[C@H](CO)NC(=O)[C@@H](N)Cc1ccc(O)cc1)[C@@H](C)O)[C@@H](C)O)C(=O)N[C@@H](CO)C(=O)N[C@@H](CCCCN)C(=O)N[C@@H](Cc1ccc(O)cc1)C(=O)N[C@@H](CC(C)C)C(=O)N[C@@H](CC(=O)O)C(=O)N[C@@H](C)C(=O)N[C@@H](C)C(=O)N[C@@H](CCCNC(=N)N)C(=O)N[C@@H](C)C(=O)N[C@@H](CCC(N)=O)C(=O)N[C@@H](CCC(=O)O)C(=O)N[C@@H](Cc1ccccc1)C(=O)N[C@H](C(=O)N[C@@H](CCCCN)C(=O)N[C@@H](Cc1c[nH]c2ccccc12)C(=O)N[C@@H](CC(C)C)C(=O)N[C@@H](CCC(=O)O)C(=O)N[C@@H](CC(=O)O)C(=O)N[C@@H](CCC(=O)O)C(=O)N1CCC[C@H]1C(=O)N[C@@H](CCCCN)C(=O)N[C@@H](CO)C(=O)N[C@@H](CCCCN)C(=O)N[C@@H](CO)C(=O)N1CCC[C@H]1C(=O)N1CCC[C@H]1C(=O)N1CCC[C@H]1C(=O)N[C@@H](CO)C(N)=O)C(C)C)C(=O)O [Compound B36] (H-YSQGTFTSDK([γGlu-Palmitoyl])SKYLDAARAQEFVKWLEDEPKSKSPPPS-NH2) |  |  | 0.00316 nM | 7.94 nM
CCCCCCCCCCCCCCCC(=O)N[C@@H](CCC(=O)NCCCC[C@H](NC(=O)[C@@H](NC(=O)[C@H](Cc1ccccc1)NC(=O)[C@H](CCC(=O)O)NC(=O)[C@H](CCC(N)=O)NC(=O)[C@H](C)NC(=O)[C@H](CCCNC(=N)N)NC(=O)[C@H](C)NC(=O)[C@H](CO)NC(=O)[C@H](CC(=O)O)NC(=O)[C@H](CC(C)C)NC(=O)[C@H](Cc1ccc(O)cc1)NC(=O)[C@H](CCCCN)NC(=O)[C@H](CO)NC(=O)[C@H](Cc1ccc(O)cc1)NC(=O)[C@H](CC(=O)O)NC(=O)[C@H](CO)NC(=O)[C@@H](NC(=O)[C@H](Cc1ccccc1)NC(=O)[C@@H](NC(=O)CNC(=O)[C@H](Cc1c[nH]cn1)NC(=O)[C@H](CO)NC(=O)[C@@H](N)Cc1ccc(O)cc1)[C@@H](C)O)[C@@H](C)O)C(C)C)C(=O)N[C@@H](Cc1c[nH]c2ccccc12)C(=O)N[C@@H](CC(C)C)C(=O)N[C@@H](CCC(=O)O)C(=O)N[C@@H](CC(=O)O)C(=O)N[C@@H](CCC(=O)O)C(=O)N1CCC[C@H]1C(=O)N[C@@H](CO)C(=O)N[C@@H](CO)C(=O)NCC(=O)N[C@@H](C)C(=O)N1CCC[C@H]1C(=O)N1CCC[C@H]1C(=O)N1CCC[C@H]1C(=O)N[C@@H](CO)C(N)=O)C(=O)O [Compound B42] (H-YSHGTFTSDYSKYLDSARAQEFVK([γGlu-Palmitoyl])WLEDEPSSGAPPPS-NH2) |  |  | 0.2 nM | > 1000 nM
CCCCCCCCCCCCCCCC(=O)N[C@@H](CCC(=O)NCCCC[C@H](NC(=O)[C@H](CC(=O)O)NC(=O)[C@H](CC(C)C)NC(=O)[C@H](Cc1ccc(O)cc1)NC(=O)[C@H](CCCCN)NC(=O)[C@H](CO)NC(=O)[C@H](Cc1ccc(O)cc1)NC(=O)[C@H](CC(=O)O)NC(=O)[C@H](CO)NC(=O)[C@@H](NC(=O)[C@H](Cc1ccccc1)NC(=O)[C@@H](NC(=O)CNC(=O)[C@H](Cc1c[nH]cn1)NC(=O)[C@H](CO)NC(=O)[C@@H](N)Cc1ccc(O)cc1)[C@@H](C)O)[C@@H](C)O)C(=O)N[C@@H](C)C(=O)N[C@@H](CCCNC(=N)N)C(=O)N[C@@H](C)C(=O)N[C@@H](CCC(N)=O)C(=O)N[C@@H](CCC(=O)O)C(=O)N[C@@H](Cc1ccccc1)C(=O)N[C@H](C(=O)N[C@@H](CCCCN)C(=O)N[C@@H](Cc1c[nH]c2ccccc12)C(=O)N[C@@H](CC(C)C)C(=O)N[C@@H](CCC(=O)O)C(=O)N[C@@H](CC(=O)O)C(=O)N[C@@H](CCC(=O)O)C(=O)N1CCC[C@H]1C(=O)N[C@@H](CO)C(=O)N[C@@H](CO)C(=O)NCC(=O)N[C@@H](C)C(=O)N1CCC[C@H]1C(=O)N1CCC[C@H]1C(=O)N1CCC[C@H]1C(=O)N[C@@H](CO)C(N)=O)C(C)C)C(=O)O [Compound B43] |  |  | 0.00794 nM | > 1000 nM
CCCCCCCCCCCCCCCC(=O)N[C@@H](CCC(=O)NCCCC[C@H](NC(=O)[C@H](CC(=O)O)NC(=O)[C@H](CO)NC(=O)[C@@H](NC(=O)[C@H](Cc1ccccc1)NC(=O)[C@@H](NC(=O)CNC(=O)[C@H](Cc1c[nH]cn1)NC(=O)[C@H](CO)NC(=O)[C@@H](N)Cc1ccc(O)cc1)[C@@H](C)O)[C@@H](C)O)C(=O)N[C@@H](CO)C(=O)N[C@@H](CCCCN)C(=O)N[C@@H](Cc1ccc(O)cc1)C(=O)N[C@@H](CC(C)C)C(=O)N[C@@H](CC(=O)O)C(=O)N[C@@H](CO)C(=O)N[C@@H](C)C(=O)N[C@@H](CCCNC(=N)N)C(=O)N[C@@H](C)C(=O)N[C@@H](CCC(N)=O)C(=O)N[C@@H](CCC(=O)O)C(=O)N[C@@H](Cc1ccccc1)C(=O)N[C@H](C(=O)N[C@@H](CCCCN)C(=O)N[C@@H](Cc1c[nH]c2ccccc12)C(=O)N[C@@H](CC(C)C)C(=O)N[C@@H](CCC(=O)O)C(=O)N[C@@H](CC(=O)O)C(=O)N[C@@H](CCC(=O)O)C(=O)N1CCC[C@H]1C(=O)N[C@@H](CO)C(=O)N[C@@H](CO)C(=O)NCC(=O)N[C@@H](C)C(=O)N1CCC[C@H]1C(=O)N1CCC[C@H]1C(=O)N1CCC[C@H]1C(=O)N[C@@H](CO)C(N)=O)C(C)C)C(=O)O [Compound B44] (H-YSHGTFTSDK([γGlu-Palmitoyl])SKYLDSARAQEFVKWLEDEPSSGAPPPS-NH2) |  |  | 0.00126 nM | 63.1 nM
